Assay results taken from PubChem BioAssay (NCI).
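96-well plates; 48 h exposure; 5 concentrations. Endpoints by linear interpolation between flanking doses. Not reached: highest tested concentration assigned. TGI marks complete inhibition of growth.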

What was measured:
Experiment in all cases: DTP human tumour cell line panel, 48 h
UACC-62 melanoma = system: UACC-62 melanoma
EKVX NSCLC = system: EKVX NSCLC
RPMI-8226 leukemia = system: RPMI-8226 leukemia
NCI-H460 lung = system: NCI-H460 lung
NCI-H522 lung = system: NCI-H522 lung
SK-OV-3 ovarian = system: SK-OV-3 ovarian
SW-620 colon = system: SW-620 colon
NCI/ADR-RES ovarian = system: NCI/ADR-RES ovarian
NCI-H23 lung = system: NCI-H23 lung
K-562 leukemia = system: K-562 leukemia
A549 NSCLC = system: A549 NSCLC
UACC-257 melanoma = system: UACC-257 melanoma
COLO 205 colon = system: COLO 205 colon
MOLT-4 leukemia = system: MOLT-4 leukemia
HCT-116 colon = system: HCT-116 colon
SNB-19 CNS = system: SNB-19 CNS
786-0 renal = system: 786-0 renal
M14 melanoma = system: M14 melanoma

Structure (SMILES) | TGI (UACC-62 melanoma) | TGI (EKVX NSCLC) | TGI (RPMI-8226 leukemia) | TGI (NCI-H460 lung) | TGI (NCI-H522 lung) | TGI (SK-OV-3 ovarian) | TGI (SW-620 colon) | TGI (NCI/ADR-RES ovarian) | TGI (NCI-H23 lung) | TGI (K-562 leukemia) | TGI (A549 NSCLC) | TGI (UACC-257 melanoma) | TGI (COLO 205 colon) | TGI (MOLT-4 leukemia) | TGI (HCT-116 colon) | TGI (SNB-19 CNS) | TGI (786-0 renal) | TGI (M14 melanoma)
COC1OCC(O)C(NC(=O)N(C)N=O)C1O (stereo unspecified) | > 100 µM | > 100 µM | > 100 µM | > 100 µM | > 100 µM | > 100 µM | > 100 µM | > 100 µM | > 100 µM | > 100 µM | > 100 µM | > 100 µM | > 100 µM | > 100 µM | > 100 µM | > 100 µM |  | 
CCC12CCCN(Cc3ccccc3)C1c1c(n(C)c3ccccc13)C(CO)C2 (stereo unspecified) | 115 µM | 245 µM | 108 µM | 73.8 µM | 66.7 µM | 194 µM | 89.2 µM |  | 158 µM | 107 µM | > 257 µM | 95.1 µM | 75.2 µM | 149 µM | 53.6 µM | 186 µM | 79.5 µM | 
CCOC(=O)c1nc2ccc(OC)cc2c2c1Cc1ccccc1-2 | > 100 µM |  | > 100 µM | > 100 µM | > 100 µM |  | > 100 µM |  | > 100 µM | > 100 µM | > 100 µM | > 100 µM | > 100 µM | > 100 µM | > 100 µM | > 100 µM |  | > 100 µM
O=C1C=C(Nc2ccccc2C(=O)CC(=O)C(=O)Nc2ccc(Cl)cc2)c2ccccc2C1=O | 29.8 µM | 99 µM | > 33.2 µM | 34.7 µM | 26.1 µM | 76.1 µM | 27 µM |  | 29.6 µM | 40.9 µM | 32.4 µM | 21.7 µM | 34.5 µM | > 38.5 µM | 28.8 µM | 43.9 µM | 62.1 µM | 24.1 µM
CC1(C)OC[C@H](C(=N)OCc2ccccc2)O1 | > 100 µM | > 100 µM | > 100 µM | > 100 µM | > 100 µM | > 100 µM | > 100 µM |  | > 100 µM | > 100 µM | > 100 µM | > 100 µM | > 100 µM | > 100 µM | > 100 µM | > 100 µM |  | > 100 µM
CCCCCCSc1nc(N)nc2nc[nH]c12 | > 100 µM | > 100 µM | > 100 µM | > 100 µM | 40.9 µM | 80.8 µM | > 100 µM | > 100 µM | > 100 µM | > 100 µM | > 100 µM | > 100 µM | > 100 µM | > 100 µM | > 100 µM | > 100 µM |  | 
CC(=O)c1ccccc1NC(=O)C(=O)C(C(=O)c1ccc2ccccc2c1)C1OC(=O)c2ccccc21 (stereo unspecified) | 28.1 µM | > 100 µM | 52.7 µM | > 100 µM | 29.2 µM | > 100 µM | 40.6 µM |  | 26.8 µM | 70.3 µM | 70.5 µM | 61.8 µM | 30.2 µM | > 100 µM | 29.6 µM | 35.3 µM | 20.9 µM | 36.6 µM
CC(C)OP(=S)(NC(=S)c1ccccc1)OC(C)C | > 100 µM | > 100 µM |  | > 100 µM |  | > 100 µM | > 100 µM |  | > 100 µM | > 100 µM | > 100 µM | > 100 µM | > 100 µM | > 100 µM | > 100 µM | > 100 µM | > 100 µM | > 100 µM
Cc1cc(=O)oc2cc(OCCCOc3ccc4c(C)cc(=O)oc4c3)ccc12 | > 100 µM | > 100 µM | > 100 µM | > 100 µM |  |  | > 100 µM |  | > 100 µM | > 100 µM | > 100 µM | > 100 µM | > 100 µM | > 100 µM | > 100 µM | > 100 µM | > 100 µM | > 100 µM
COc1ccc2c(c1)Oc1cc(O)ccc1[C@H]2c1ccccc1C(=O)NC(C)c1ccccc1 (stereo partly specified) | 24.8 µM | 33.5 µM | 23.6 µM | 26.8 µM | 28 µM | 39.3 µM | 35.6 µM |  | 32.5 µM | > 100 µM | 31.5 µM | 37.3 µM | 31.3 µM | 64.8 µM | 26.5 µM | 33 µM | 34.9 µM | 26.1 µM
O=C(Cc1nc2ccc(C(=O)c3ccccc3)cc2[nH]c1=O)C(=O)Nc1nc2ccccc2[nH]1 | > 100 µM | > 100 µM |  | > 100 µM | > 100 µM | > 100 µM | > 100 µM |  | > 100 µM |  | > 100 µM | > 100 µM | > 100 µM | > 100 µM | > 100 µM | > 100 µM | > 100 µM | > 100 µM
CC1=NN(C(=O)Cc2ccccc2)C(=O)/C1=C\c1ccc([N+](=O)[O-])cc1 | > 100 µM | > 100 µM | > 100 µM | > 100 µM | > 100 µM | > 100 µM | > 100 µM |  | > 100 µM | > 100 µM | > 100 µM | > 100 µM | > 100 µM | > 100 µM | > 100 µM | > 100 µM | > 100 µM | > 100 µM
